{
  "source": "patent US20070027181A1",
  "about": "“Benzylisoquinoline derivative- or bisbenzylisoquinoline derivative-containing psychotropic agent, analgesic and/or antiphlogistic, and health food” (EDUCATION CENTER OF TRADITIONAL, priority 2004, published 2007)",
  "key": {"[1]": {"tested_on": "mice", "assay": "glass ball-covering behavior test (obsessive compulsive disorders)", "assay_type": "in vivo, Male ICR mice", "procedure": "(§1) In the following Examples, all extracts and drugs used were dissolved in physiological saline before use for i.p. administration and the dose was 0.1 ml of physiological saline per 10 g of mouse body weight in either case. All extracts and drugs were suspended in physiological saline containing 1% sodium carboxymethylcellulose before use for oral administration and the dose was 0.1 ml of 1% sodium carboxymethylcellulose-containing physiological saline suspension per 10 g of mouse body weight in either case. Male ICR mice (Japan SLC) having a body weight of 25 to 30 g were used in the tests below unless otherwise stated, and were fed in advance at a room temperature of 23±1° C. and a relative humidity of 55±5% in the environment of a cycle of 12-hour-light from 7 a.m. to 7 p.m. and 12-hour-dark from 7 p.m. to 7 a.m. for 3 to 5 days. The mice were allowed to have water and feed freely.\nIn evaluating glass ball-covering behavior, wood chip for breeding (beta chip) (Oriental Yeast Co., Ltd.) was placed in the transparent cage described in Example 3 to a depth of 5 cm, on which 20 glass balls (diameter: 1.5 cm) were placed evenly.\nTwenty-one mice were grouped into three groups each of seven mice, to which 25 mg/kg of neferine hydrochloride (treatment group 6-1), 50 mg/kg of the same (treatment group 6-2), and physiological saline (negative control group) were administered intraperitoneally, respectively. A mouse was placed in the cage 15 minutes after administration, and the number of the glass balls not covered with the wood chip was counted by visual observation at an interval of 10 minutes. The number of balls having ⅔ or more of the surface thereof being embedded in the wood chip when the cage was observed from above was counted as the criteria for judgment."}, "[2]": {"tested_on": "mice", "assay": "acetic acid-induced writhing test", "assay_type": "in vivo, Male ICR mice", "procedure": "as §1\nAn acetic acid-induced writhing test is a method wherein analgesic action of a compound is determined utilizing this. The number of this writhing is compared between a physiological saline-administered control group and a test drug-administered group, and suppression of the number of writhing by the test drug is investigated thereby assessing its analgesic action.\nSeven to ten mice per group were used. Neferine hydrochloride was subcutaneously administered to mice at their back at a dose of 5 mg/kg, 10 mg/kg, 25 mg/kg, 50 mg/kg or 100 mg/kg and, after 15 minutes, a 0.6% by weight solution of acetic acid in water was intraperitoneally administered at 0.1 mL/10 g body weight. The number of writhing was counted every ten minutes for 30 minutes from immediately after acetic acid administration (0 to 10 min, 10 to 20 min, 20 to 30 min). In addition, the total number of writhing for 30 minutes from immediately after acetic acid administration was also obtained. Regarding the resulting measurements, a significant difference test was performed by a Dunnet multiple comparison test method.\nAccording to the same manner as in acetic acid-induced writhing test-1 except that acetic acid was intraperitoneally administered 30 minutes after subcutaneous administration of neferine in the aforementioned acetic acid-induced writhing test-1, an acetic acid-induced writhing test was performed. However, the dose of neferine was only 50 mg/kg.\nAccording to the same manner as in the acetic acid-induced writhing test-1 except that acetic acid was intraperitoneally administered 30 minutes after oral administration of neferine in the aforementioned acetic acid-induced writhing test-1, an acetic acid-induced writhing test was performed. However, five to six mice per group were used. The dose of neferine was 10 mg/kg and 50 mg/kg. Further, aspirin was used as a positive control drug. The dose of aspirin was 50 mg/kg.\nAccording to the same manner as in acetic acid-induced writhing test-1 except that armepavine was used in place of neferine in the aforementioned acetic acid-induced writhing test-1, an acetic acid-induced writhing test was performed. However, the dose of armepavine was 5 mg/kg and 10 mg/kg.\nAccording to the same manner as in acetic acid-induced writhing test-1 except that O-methylarmepavine was used in place of neferine in the aforementioned acetic acid-induced writhing test-1, an acetic acid-induced writhing test was performed. However, the dose of O-methylarmepavine was 5 mg/kg and 10 mg/kg."}, "[3]": {"conditions": "Seibu et al., Journal of Natural Products 49 (1986); no specific data; cited from earlier work"}, "[4]": {"conditions": "5 mg/kg s.c. 15 minutes before acetic acid"}, "[5]": {"conditions": "10 mg/kg oral 30 minutes before acetic acid"}, "[6]": {"conditions": "10 mg/kg s.c. 15 minutes before acetic acid"}, "[7]": {"conditions": "25 mg/kg s.c. 15 minutes before acetic acid"}, "[8]": {"conditions": "50 mg/kg oral 30 minutes before acetic acid"}, "[9]": {"conditions": "50 mg/kg s.c. 15 minutes before acetic acid"}, "[10]": {"conditions": "50 mg/kg s.c. 30 minutes before acetic acid"}, "[11]": {"conditions": "100 mg/kg s.c. 15 minutes before acetic acid"}},
  "data": [
    {"smiles": "COc1ccc(C[C@@H]2c3cc(Oc4cc(C[C@@H]5c6cc(OC)c(OC)cc6CCN5C)ccc4O)c(OC)cc3CCN2C)cc1", "note": "[neferine]", "values": [
      {"measurement": "Number of glass balls covered with wood chip After 20 minutes", "setting": "[1]; 25 mg/kg i.p.", "result": 7},
      {"measurement": "Number of glass balls covered with wood chip After 30 minutes", "setting": "[1]; 25 mg/kg i.p.", "result": 10},
      {"measurement": "Number of glass balls covered with wood chip After 10 minutes", "setting": "[1]; 25 mg/kg i.p., placed in cage 15 minutes after administration", "result": 4},
      {"measurement": "Number of glass balls covered with wood chip After 10 minutes", "setting": "[1]; 50 mg/kg i.p.", "result": 3},
      {"measurement": "Number of glass balls covered with wood chip After 20 minutes", "setting": "[1]; 50 mg/kg i.p.", "result": 6},
      {"measurement": "Number of glass balls covered with wood chip After 30 minutes", "setting": "[1]; 50 mg/kg i.p.", "result": 9},
      {"measurement": "Number of writhing 0-10 min.", "setting": "[2]; [4]", "result": "21.8 ± 2.30"},
      {"measurement": "Number of writhing 0-30 min.", "setting": "[2]; [4]", "result": "51.0 ± 5.34"},
      {"measurement": "Number of writhing 10-20 min.", "setting": "[2]; [4]", "result": "19.0 ± 2.14"},
      {"measurement": "Number of writhing 20-30 min.", "setting": "[2]; [4]", "result": "10.7 ± 2.04"},
      {"measurement": "Number of writhing 0-10 min.", "setting": "[2]; [5]", "result": "7.6 ± 1.63"},
      {"measurement": "Number of writhing 0-30 min.", "setting": "[2]; [5]", "result": "23.3 ± 1.52"},
      {"measurement": "Number of writhing 10-20 min.", "setting": "[2]; [5]", "result": "9.2 ± 1.35"},
      {"measurement": "Number of writhing 20-30 min.", "setting": "[2]; [5]", "result": "6.5 ± 2.50"},
      {"measurement": "Number of writhing 0-10 min.", "setting": "[2]; [6]", "result": "12.1 ± 1.91"},
      {"measurement": "Number of writhing 0-30 min.", "setting": "[2]; [6]", "result": "31.6 ± 6.15"},
      {"measurement": "Number of writhing 10-20 min.", "setting": "[2]; [6]", "result": "11.6 ± 2.66"},
      {"measurement": "Number of writhing 20-30 min.", "setting": "[2]; [6]", "result": "7.9 ± 3.06"},
      {"measurement": "Number of writhing 0-10 min.", "setting": "[2]; [7]", "result": "8.9 ± 2.22"},
      {"measurement": "Number of writhing 0-30 min.", "setting": "[2]; [7]", "result": "19.4 ± 3.48"},
      {"measurement": "Number of writhing 10-20 min.", "setting": "[2]; [7]", "result": "6.9 ± 1.90"},
      {"measurement": "Number of writhing 20-30 min.", "setting": "[2]; [7]", "result": "3.6 ± 1.19"},
      {"measurement": "Number of writhing 0-10 min.", "setting": "[2]; [8]", "result": "2.4 ± 1.94"},
      {"measurement": "Number of writhing 0-30 min.", "setting": "[2]; [8]", "result": "8.0 ± 3.08"},
      {"measurement": "Number of writhing 10-20 min.", "setting": "[2]; [8]", "result": "4.0 ± 1.30"},
      {"measurement": "Number of writhing 20-30 min.", "setting": "[2]; [8]", "result": "1.6 ± 0.81"},
      {"measurement": "Number of writhing 0-10 min.", "setting": "[2]; [9]", "result": "5.7 ± 1.38"},
      {"measurement": "Number of writhing 0-30 min.", "setting": "[2]; [9]", "result": "19.7 ± 3.56"},
      {"measurement": "Number of writhing 10-20 min.", "setting": "[2]; [9]", "result": "5.7 ± 1.38"},
      {"measurement": "Number of writhing 20-30 min.", "setting": "[2]; [9]", "result": "5.3 ± 2.15"},
      {"measurement": "Number of writhing 0-10 min.", "setting": "[2]; [10]", "result": "10.6 ± 2.53"},
      {"measurement": "Number of writhing 0-30 min.", "setting": "[2]; [10]", "result": "27.4 ± 3.73"},
      {"measurement": "Number of writhing 10-20 min.", "setting": "[2]; [10]", "result": "10.3 ± 1.90"},
      {"measurement": "Number of writhing 20-30 min.", "setting": "[2]; [10]", "result": "6.6 ± 1.53"},
      {"measurement": "Number of writhing 0-10 min.", "setting": "[2]; [11]", "result": "4.0 ± 1.22"},
      {"measurement": "Number of writhing 0-30 min.", "setting": "[2]; [11]", "result": "14.9 ± 2.16"},
      {"measurement": "Number of writhing 10-20 min.", "setting": "[2]; [11]", "result": "6.7 ± 1.31"},
      {"measurement": "Number of writhing 20-30 min.", "setting": "[2]; [11]", "result": "4.2 ± 1.02"},
      {"measurement": "dose showing significant analgesic action against the negative control group", "setting": "[2]; 15 minute-before subcutaneous administration", "result": "≥ 10", "unit": "mg/kg"},
      {"measurement": "analgesic action compared with aspirin", "setting": "[2]; oral administration 30 minutes before acetic acid", "result": "strong analgesic action as compared with aspirin"},
      {"measurement": "antihypertensive action", "setting": "[3]", "result": "exhibited an antihypertensive action"}
    ]}
  ]
}
